# Results published in PubChem BioAssay (NCI).
# Values joined by “and” are separate entries in the source; they are usually repeats but may differ in a detail not shown here. Identical values can stand only once.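 1) Cells in 96-well plates. 2) Compound, 48 h, 5 concentrations. 3) Linear interpolation between surrounding doses. 4) Unreached endpoint = highest concentration. Here, GI50 denotes the concentration required for 50% inhibition of growth. TGI is the concentration that stops growth completely.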
# Columns and labels:
# Assay in all cases: NCI-60 cell line screen, 48 h
# LOX IMVI melanoma = system: LOX IMVI melanoma
# PC-3 prostate = system: PC-3 prostate
# MALME-3M melanoma = system: MALME-3M melanoma
# HCT-116 colon = system: HCT-116 colon
# MDA-MB-231 breast = system: MDA-MB-231 breast
# RXF 393 renal = system: RXF 393 renal
# A498 renal = system: A498 renal
# NCI-H522 lung = system: NCI-H522 lung
# NCI-H23 lung = system: NCI-H23 lung
# NCI/ADR-RES ovarian = system: NCI/ADR-RES ovarian
Structure (SMILES),TGI (LOX IMVI melanoma),TGI (PC-3 prostate),TGI (MALME-3M melanoma),TGI (HCT-116 colon),TGI (MDA-MB-231 breast),TGI (RXF 393 renal),TGI (A498 renal),TGI (NCI-H522 lung),TGI (NCI-H23 lung),TGI (NCI/ADR-RES ovarian),GI50 (LOX IMVI melanoma),GI50 (MALME-3M melanoma),GI50 (HCT-116 colon),GI50 (RXF 393 renal),GI50 (NCI-H522 lung),GI50 (PC-3 prostate),GI50 (NCI-H23 lung)
COc1cc2nc3n(c(=O)c2cc1OC)CCCCC3,> 100 µM,> 100 µM,> 100 µM,> 100 µM,> 100 µM,> 100 µM,> 100 µM,> 100 µM,> 100 µM,> 100 µM,–,–,–,–,–,–,–
O=C1CCc2ccccc2O1,> 100 µM,> 100 µM,> 100 µM,> 100 µM,> 100 µM,> 100 µM,> 100 µM,> 100 µM,> 100 µM,> 100 µM,–,–,–,–,–,–,–
CCc1n[nH]c(=O)n1N=C(c1ccccc1)c1ccccc1,> 100 µM,> 100 µM,> 100 µM,> 100 µM,> 100 µM,> 100 µM,> 100 µM,> 100 µM,> 100 µM,> 100 µM,–,–,–,–,–,–,–
CC(=O)CC12NC(=O)N(C)N=C1N(C)C(=O)N(C)C2=O (stereo unspecified),40.8 µM,> 100 µM,26.5 µM,> 100 µM,> 100 µM,> 100 µM,> 100 µM,> 100 µM,> 100 µM,> 100 µM,–,–,–,–,–,–,–
Cc1sc2nc3n(c(=O)c2c1C)N=C(c1ccccc1)CS3,> 100 µM,> 100 µM,> 100 µM,> 100 µM,> 100 µM,> 100 µM,> 100 µM,> 100 µM,> 100 µM,> 100 µM,–,–,–,–,–,–,–
N#CC(C#N)C1CN2CCC1CC2 (stereo unspecified),> 100 µM,> 100 µM,> 100 µM,> 100 µM,> 100 µM,> 100 µM,> 100 µM,> 100 µM,> 100 µM,> 100 µM,–,–,–,–,–,–,–
COC(=O)[C@@H](NC(=O)c1ccc(CNC(=O)/C(C)=C/c2ccccc2)cc1)C(C)C,> 100 µM,> 100 µM,> 100 µM,> 100 µM,> 100 µM,> 100 µM,> 100 µM,> 100 µM,> 100 µM,> 100 µM,–,–,–,–,–,–,–
NC(CS)C(=O)NCCNc1ccc(NCCNC(=O)C(N)CS)c2c1C(=O)c1c(O)ccc(O)c1C2=O (stereo unspecified),0.205 µM and 0.165 µM,1.13 µM,1.27 µM and 1.24 µM,0.261 µM and 0.154 µM,1.62 µM,0.554 µM and 0.455 µM,0.344 µM,0.421 µM and 0.127 µM,0.0636 µM and 0.0484 µM,1.03 µM,0.0149 µM,0.0818 µM,0.0176 µM,0.103 µM,0.0165 µM,–,–
CCN(CCN(CC)C(=O)NC)C(=O)NC,> 100 µM,> 100 µM,> 100 µM,> 100 µM,> 100 µM,> 100 µM,> 100 µM,> 100 µM,> 100 µM,> 100 µM,–,–,–,–,–,–,–
COc1cc(/C=C/C2=NN(c3cccc(S(=O)(=O)O)c3)C3(C2)SCC(=O)N3c2nc3ccccc3s2)cc(OC)c1OC (stereo unspecified),40.7 µM,> 100 µM,> 100 µM,> 100 µM,> 100 µM,> 100 µM,> 100 µM,38.4 µM,> 100 µM,> 100 µM,–,–,–,–,–,–,–
C=C(C)[C@@H]1CCC2=C(CC[C@]3(C)[C@@H]([C@@H](CCC=C(C)C)C(=O)O)[C@H](O)C[C@@]23C)[C@@]1(C)CCC(=O)O,> 100 µM,> 100 µM,> 100 µM,> 100 µM,> 100 µM,> 100 µM,> 100 µM,> 100 µM,> 100 µM,> 100 µM,–,–,–,–,–,–,–
O=C1C(c2c(O)[nH]c3ccc(I)cc23)=Nc2ccccc21,34.4 µM,9.4 µM,> 86.1 µM,–,8.47 µM,34.6 µM,5.57 µM,> 58.9 µM,45.7 µM,> 100 µM,–,–,–,–,–,–,–
Clc1ccc(Nc2nnc(CNc3ccc(-c4nnc(Nc5ccc(Cl)cc5)o4)cc3)o2)cc1,20.7 µM,25.3 µM,28.5 µM,33.7 µM,25.4 µM,34.6 µM,28.9 µM,37.1 µM,36 µM,> 77.9 µM,–,–,–,–,–,–,–
CN(C)CCCN=c1c2ccccc2n(C)c2[nH]c(=O)n(C)c(=O)c12,39.1 µM,22.4 µM,11 µM,> 41.8 µM,28 µM,30.1 µM,38 µM,9.34 µM,21.7 µM,> 100 µM,–,–,–,–,–,–,–
CN(C)C=Nc1c2c(nc3ccccc13)CCCC2,> 100 µM,> 100 µM,> 100 µM,> 100 µM,> 100 µM,> 100 µM,> 100 µM,> 100 µM,> 100 µM,> 100 µM,–,–,–,–,–,–,–
COC(=O)C1=C(C)NC2=C(C(=O)c3ccccc32)C1c1cn[nH]c1-c1ccccc1 (stereo unspecified),–,> 100 µM,> 100 µM,> 100 µM,> 100 µM,> 100 µM,> 100 µM,> 100 µM,> 100 µM,> 100 µM,–,–,–,–,–,–,–
O=C(NCCC1CN(S(=O)(=O)C(F)(F)F)c2ccccc21)OCc1ccccc1 (stereo unspecified),–,> 100 µM,> 100 µM,> 100 µM,> 100 µM,> 100 µM,> 100 µM,> 100 µM,> 100 µM,> 100 µM,–,–,–,–,–,–,–
COc1ccccc1[C@@H]1CCC2CC[C@@H](c3ccccc3OC)[N+]21Cc1ccccc1 (stereo partly specified),13.2 µM,7.94 µM,15.3 µM,13.1 µM,9.83 µM,8.53 µM,7.66 µM,11.5 µM,6.63 µM,32.3 µM,–,–,–,–,–,–,–
N#Cc1c(O)c(C=O)c(=O)n2c1[nH]c1ccccc12,> 100 µM,> 100 µM,> 100 µM,> 100 µM,> 100 µM,> 100 µM,> 100 µM,> 100 µM,> 100 µM,> 100 µM,–,–,–,–,–,–,–
CCOC(=O)[C@@]12NN=N[C@@H]1[C@H]1CO[C@H](c3ccccc3)N1C2=O,4.92 µM,26 µM,26.8 µM,32.5 µM,30.6 µM,13.9 µM,24.1 µM,13.1 µM,32.8 µM,75.9 µM,–,–,–,–,–,–,–
COc1cc(C2c3cc4c(cc3OC(NNc3ccccc3)C2C)OCO4)cc(OC)c1O (stereo unspecified),19 µM,14.9 µM,11 µM,13.5 µM,8.53 µM,13.7 µM,16.3 µM,12.1 µM,29.4 µM,11.1 µM,–,–,–,–,–,–,–
Nc1nc(N)c2nc(CNc3ccc(C(=O)NC(CCNC(=O)c4ccccc4C(=O)O)C(=O)O)cc3)cnc2n1 (stereo unspecified),> 100 µM,> 100 µM,> 100 µM,> 100 µM,> 100 µM,> 100 µM,> 100 µM,> 100 µM,> 100 µM,> 100 µM,0.00439 µM,–,–,0.967 µM,–,0.00666 µM,0.0324 µM
Cc1csc2c(=O)n(COCc3ccccc3)c(=O)[nH]c12,> 100 µM,> 100 µM,> 100 µM,> 100 µM,> 100 µM,> 100 µM,> 100 µM,> 100 µM,> 100 µM,> 100 µM,–,–,–,–,–,–,–
O=C1C=CC(=O)[C@H]2C3C=CC(C4C3C3(Cl)C(Cl)=C(Cl)[C@]4(Cl)C3(Cl)Cl)[C@@H]12 (stereo partly specified),11.7 µM,16.4 µM,22.6 µM,12.9 µM,16.7 µM,13.8 µM,31.7 µM,23.1 µM,25.7 µM,17.4 µM,–,–,–,–,–,–,–
O=C1c2c(F)c(F)c(F)c(F)c2SC2=Nc3cccc4cccc(c34)N12,7.79 µM,17.2 µM,9.24 µM,11.9 µM,11.7 µM,11.1 µM,35.2 µM,9.01 µM,10.9 µM,10.2 µM,–,–,–,–,–,–,–
O=C(CBr)NCCc1c[nH]c2ccccc12,2.79 µM,4.03 µM,9.41 µM,3.15 µM,4.49 µM,2.41 µM,41.2 µM,0.458 µM,3.19 µM,6.96 µM,–,–,–,–,–,–,–
Cc1cc2nc(CC(C(F)(F)F)C(F)(F)F)oc2cc1C,1.44 µM,5.43 µM,9.32 µM,2.64 µM,9.09 µM,9.73 µM,26.3 µM,1.13 µM,8.15 µM,> 43.3 µM,–,–,–,–,–,–,–
O=C1c2ccccc2C(=O)c2c(NCC3CO3)cccc21 (stereo unspecified),5.38 µM,> 57 µM,> 100 µM,17.6 µM,> 75 µM,20.6 µM,> 100 µM,> 100 µM,> 40.4 µM,38 µM,–,–,–,–,–,–,–
NCCN(CCN)/[N+]([O-])=N/O,> 100 µM,> 100 µM,> 100 µM,> 100 µM,> 100 µM,> 100 µM,> 100 µM,> 100 µM,> 100 µM,> 100 µM,–,–,–,–,–,–,–
Cc1cc2c(cc1-c1cc3c(cc1C)C(C(C)C)=C(O)C(=O)/C3=C\Nc1ccccn1)/C(=C/Nc1ccccn1)C(=O)C(O)=C2C(C)C,> 100 µM,> 100 µM,67.6 µM,> 100 µM,> 100 µM,> 100 µM,> 100 µM,74.8 µM,> 100 µM,> 100 µM,–,–,–,–,–,–,–
